According to ChEMBL document CHEMBL3526097, “Preclinical disposition of GDC-0973 and prospective and retrospective analysis of human dose and efficacy predictions” (Drug Metab Dispos, 2012):

Experiments:
[1] = Efflux ratio of permeability from […] side in MDCK1 cells expressing MDR1 at 10 uM after 2 hrs by LC-MS/MS analysis; type: ADME, cell-based, Canis lupus familiaris; conditions: dog, mdck1, 2 h
Liver [2] = test: Drug uptake in Long-Evans rat liver at 30 mg/kg, po after 2 hrs by autoradiography; type: ADME, organism-based; parameters: dose 30 mg/kg, route oral; conditions: in vivo
[3] = Ratio of drug level in blood to plasma in Sprague-Dawley rat at 1 uM after 30 mins; type: ADME
[4] = Ratio of drug level in blood to plasma in cynomolgus monkey at 1 uM after 30 mins; type: ADME, Macaca fascicularis
[5] = Percentage unbound in human plasma at 1 uM after 5 hrs by equilibrium dialysis; type: ADME, cell-free
[6] = Percentage unbound in mouse plasma at 5 uM after 5 hrs by equilibrium dialysis; type: ADME, cell-free
[7] = Drug excretion in bile duct-intact Beagle dog urine at 30 mg/kg, po after 72 hrs by liquid scintillation counting; type: ADME, organism-based, Canis lupus familiaris; parameters: dose 30 mg/kg, route oral; conditions: in vivo
[8] = Ratio of drug level in blood to plasma in beagle dog at 1 uM after 30 mins; type: ADME, Canis lupus familiaris
[9] = Drug uptake in Long-Evans rat melanin containing tissue at 30 mg/kg, po after 72 hrs by autoradiography; type: ADME, organism-based; parameters: dose 30 mg/kg, route oral; conditions: in vivo
[10] = Ratio of drug level in blood to plasma in Sprague-Dawley rat at 10 uM after 30 mins; type: ADME
[11] = Percentage unbound in rat plasma at 10 uM after 5 hrs by equilibrium dialysis; type: ADME, cell-free
[12] = Percentage unbound in rat plasma at 5 uM after 5 hrs by equilibrium dialysis; type: ADME, cell-free
[13] = Drug excretion in bile duct-cannulated Beagle dog bile at 30 mg/kg, po after 168 hrs by liquid scintillation counting; type: ADME, organism-based, Canis lupus familiaris; parameters: dose 30 mg/kg, route oral; conditions: in vivo
[14] = Ratio of drug level in blood to plasma in human at 10 uM after 30 mins; type: ADME
[15] = Drug uptake in Long-Evans rat lacrimal gland at 30 mg/kg, po after 2 hrs by autoradiography; type: ADME, organism-based, Lachrymal gland; parameters: dose 30 mg/kg, route oral; conditions: in vivo
[16] = Drug excretion in bile duct-intact Beagle dog feces at 30 mg/kg, po after 72 hrs by liquid scintillation counting; type: ADME, organism-based, Canis lupus familiaris; parameters: dose 30 mg/kg, route oral; conditions: in vivo
Intestine = test: Drug uptake in Long-Evans rat intestine at 30 mg/kg, po after 72 hrs by autoradiography; type: ADME, organism-based; parameters: dose 30 mg/kg, route oral; conditions: in vivo
[17] = Percentage unbound in mouse plasma at 1 uM after 5 hrs by equilibrium dialysis; type: ADME, cell-free
[18] = Drug excretion in bile duct-cannulated Sprague-Dawley rat bile at 30 mg/kg, po after 48 hrs by liquid scintillation counting; type: ADME, organism-based; parameters: dose 30 mg/kg, route oral; conditions: in vivo
[19] = Percentage unbound in human alpha-1-acid glycoprotein at 5 uM after 5 hrs by equilibrium dialysis; type: ADME
[20] = Percentage unbound in human alpha-1-acid glycoprotein at 10 uM after 5 hrs by equilibrium dialysis; type: ADME
Albumin [21] = molecular target: T1, Albumin (Homo sapiens, UniProt P02768); test: Percentage unbound in human serum albumin at 1 uM after 5 hrs by equilibrium dialysis; type: ADME
T1 sequence (P02768 whole entry): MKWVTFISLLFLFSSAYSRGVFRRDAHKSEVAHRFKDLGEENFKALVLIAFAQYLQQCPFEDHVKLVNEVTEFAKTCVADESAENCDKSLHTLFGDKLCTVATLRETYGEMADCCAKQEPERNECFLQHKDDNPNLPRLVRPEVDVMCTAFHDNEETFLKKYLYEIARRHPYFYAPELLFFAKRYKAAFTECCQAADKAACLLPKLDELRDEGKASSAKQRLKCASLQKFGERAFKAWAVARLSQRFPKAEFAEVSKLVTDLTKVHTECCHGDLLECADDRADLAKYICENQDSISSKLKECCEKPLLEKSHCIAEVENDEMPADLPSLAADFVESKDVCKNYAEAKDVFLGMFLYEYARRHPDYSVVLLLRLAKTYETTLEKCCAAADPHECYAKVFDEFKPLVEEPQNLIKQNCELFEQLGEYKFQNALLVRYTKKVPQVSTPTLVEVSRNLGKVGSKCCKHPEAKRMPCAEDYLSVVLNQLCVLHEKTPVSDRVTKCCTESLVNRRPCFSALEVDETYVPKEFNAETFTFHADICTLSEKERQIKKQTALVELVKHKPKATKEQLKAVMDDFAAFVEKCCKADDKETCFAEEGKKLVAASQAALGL

[22] = Ratio of drug level in blood to plasma in beagle dog at 10 uM after 30 mins; type: ADME, Canis lupus familiaris
[23] = Ratio of drug level in blood to plasma in human at 5 uM after 30 mins; type: ADME
[24] = Percentage unbound in cynomolgus monkey plasma at 1 uM after 5 hrs by equilibrium dialysis; type: ADME, cell-free, Macaca fascicularis
[25] = Ratio of drug level in blood to plasma in Sprague-Dawley rat at 5 uM after 30 mins; type: ADME
[26] = Drug excretion in bile duct-intact Sprague-Dawley rat urine at 30 mg/kg, po after 48 hrs by liquid scintillation counting; type: ADME, organism-based; parameters: dose 30 mg/kg, route oral; conditions: in vivo
Cerebrum = test: Drug uptake in Long-Evans rat cerebrum at 30 mg/kg, po after 4 hrs by autoradiography; type: ADME, organism-based; parameters: dose 30 mg/kg, route oral; conditions: in vivo
[27] = Ratio of drug level in blood to plasma in human at 1 uM after 30 mins; type: ADME
Adrenal gland = test: Drug uptake in Long-Evans rat adrenal gland at 30 mg/kg, po after 2 hrs by autoradiography; type: ADME, organism-based; parameters: dose 30 mg/kg, route oral; conditions: in vivo
[28] = Percentage unbound in dog plasma at 1 uM after 5 hrs by equilibrium dialysis; type: ADME, cell-free, Canis lupus familiaris
[29] = Ratio of drug level in blood to plasma in CD1 mouse at 10 uM after 30 mins; type: ADME
[30] = Percentage unbound in human plasma at 10 uM after 5 hrs by equilibrium dialysis; type: ADME, cell-free
[31] = Percentage unbound in cynomolgus monkey plasma at 5 uM after 5 hrs by equilibrium dialysis; type: ADME, cell-free, Macaca fascicularis
Lung = test: Drug uptake in Long-Evans rat lung at 30 mg/kg, po after 2 hrs by autoradiography; type: ADME, organism-based; parameters: dose 30 mg/kg, route oral; conditions: in vivo
[32] = Percentage unbound in mouse plasma at 10 uM after 5 hrs by equilibrium dialysis; type: ADME, cell-free
[33] = Ratio of drug level in blood to plasma in cynomolgus monkey at 5 uM after 30 mins; type: ADME, Macaca fascicularis
[34] = Ratio of drug level in blood to plasma in CD1 mouse at 1 uM after 30 mins; type: ADME
[35] = Drug excretion in bile duct-intact Sprague-Dawley rat feces at 30 mg/kg, po after 48 hrs by liquid scintillation counting; type: ADME, organism-based; parameters: dose 30 mg/kg, route oral; conditions: in vivo
[36] = Percentage unbound in dog plasma at 10 uM after 5 hrs by equilibrium dialysis; type: ADME, cell-free, Canis lupus familiaris
Albumin [37] = molecular target: T1, Albumin; test: Percentage unbound in human serum albumin at 5 uM after 5 hrs by equilibrium dialysis; type: ADME
[38] = Percentage unbound in cynomolgus monkey plasma at 10 uM after 5 hrs by equilibrium dialysis; type: ADME, cell-free, Macaca fascicularis
Liver [39] = test: Drug uptake in Long-Evans rat liver at 30 mg/kg, po after 72 hrs by autoradiography; type: ADME, organism-based; parameters: dose 30 mg/kg, route oral; conditions: in vivo
Large intestine = test: Drug uptake in Long-Evans rat large intestine at 30 mg/kg, po after 2 hrs by autoradiography; type: ADME, organism-based; parameters: dose 30 mg/kg, route oral; conditions: in vivo
[40] = Ratio of drug level in blood to plasma in cynomolgus monkey at 10 uM after 30 mins; type: ADME, Macaca fascicularis
[41] = Percentage unbound in human plasma at 5 uM after 5 hrs by equilibrium dialysis; type: ADME, cell-free
Kidney = test: Drug uptake in Long-Evans rat kidney at 30 mg/kg, po after 72 hrs by autoradiography; type: ADME, organism-based; parameters: dose 30 mg/kg, route oral; conditions: in vivo
[42] = Percentage unbound in human alpha-1-acid glycoprotein at 1 uM after 5 hrs by equilibrium dialysis; type: ADME
[43] = Percentage unbound in dog plasma at 5 uM after 5 hrs by equilibrium dialysis; type: ADME, cell-free, Canis lupus familiaris
Albumin [44] = molecular target: T1, Albumin; test: Percentage unbound in human serum albumin at 10 uM after 5 hrs by equilibrium dialysis; type: ADME
[45] = Ratio of drug level in blood to plasma in CD1 mouse at 5 uM after 30 mins; type: ADME
[46] = Percentage unbound in rat plasma at 1 uM after 5 hrs by equilibrium dialysis; type: ADME, cell-free
[47] = Ratio of drug level in blood to plasma in beagle dog at 5 uM after 30 mins; type: ADME, Canis lupus familiaris

C[C@H]1O[C@@H](O[C@H]2[C@@H](O)C[C@H](O[C@H]3[C@@H](O)C[C@H](O[C@H]4CC[C@@]5(C)[C@H](CC[C@@H]6[C@@H]5C[C@@H](O)[C@]5(C)[C@@H](C7=CC(=O)OC7)CC[C@]65O)C4)O[C@@H]3C)O[C@@H]2C)C[C@H](O)[C@@H]1O [DIGOXIN]
Ratio [1]: 72

O=C(c1ccc(F)c(F)c1N[14c]1[14cH][14cH][14c](I)[14cH][14c]1F)N1CC(O)([C@@H]2CCCCN2)C1
Drug uptake (Liver [2]): Active | blood plasma ratio at 0.5 h, 1 µM [3]: 1.36 | blood plasma ratio at 0.5 h, 1 µM [4]: 1.57 | fraction unbound at 5 h, 1 µM [5]: 0.052 | fraction unbound at 5 h, 5 µM [6]: 0.034 | Drug excretion [7]: 6.3% | blood plasma ratio at 0.5 h, 1 µM [8]: 0.632 | Drug uptake [9]: Active | blood plasma ratio at 0.5 h, 10 µM [10]: 1.51 | fraction unbound at 5 h, 10 µM [11]: 0.037 | fraction unbound at 5 h, 5 µM [12]: 0.035 | Drug excretion [13]: 65% | blood plasma ratio at 0.5 h, 10 µM [14]: 1.05 | Drug uptake [15]: Active | Drug excretion [16]: 80% | Drug uptake (Intestine): Active | fraction unbound at 5 h, 1 µM [17]: 0.041 | Drug excretion [18]: 74% | fraction unbound at 5 h, 5 µM [19]: 0.042 | fraction unbound at 5 h, 10 µM [20]: 0.053 | fraction unbound at 5 h, 1 µM (Albumin [21]): 0.469 | blood plasma ratio at 0.5 h, 10 µM [22]: 0.936 | blood plasma ratio at 0.5 h, 5 µM [23]: 0.945 | fraction unbound at 5 h, 1 µM [24]: 0.045 | blood plasma ratio at 0.5 h, 5 µM [25]: 1.37 | Drug excretion [26]: 2.2% | Drug uptake (Cerebrum): Active | blood plasma ratio at 0.5 h, 1 µM [27]: 0.933 | Drug uptake (Adrenal gland): Active | fraction unbound at 5 h, 1 µM [28]: 0.007 | blood plasma ratio at 0.5 h, 10 µM [29]: 1.27 | fraction unbound at 5 h, 10 µM [30]: 0.058 | fraction unbound at 5 h, 5 µM [31]: 0.044 | Drug uptake (Lung): Active | fraction unbound at 5 h, 10 µM [32]: 0.033 | blood plasma ratio at 0.5 h, 5 µM [33]: 1.64 | blood plasma ratio at 0.5 h, 1 µM [34]: 1.16 | Drug excretion [35]: 85% | fraction unbound at 5 h, 10 µM [36]: 0.014 | fraction unbound at 5 h, 5 µM (Albumin [37]): 0.408 | fraction unbound at 5 h, 10 µM [38]: 0.048 | Drug uptake (Liver [39]): Active | Drug uptake (Large intestine): Active | blood plasma ratio at 0.5 h, 10 µM [40]: 1.82 | fraction unbound at 5 h, 5 µM [41]: 0.065 | Drug uptake (Kidney): Active | fraction unbound at 5 h, 1 µM [42]: 0.044 | fraction unbound at 5 h, 5 µM [43]: 0.012 | fraction unbound at 5 h, 10 µM (Albumin [44]): 0.408 | blood plasma ratio at 0.5 h, 5 µM [45]: 1.19 | fraction unbound at 5 h, 1 µM [46]: 0.028 | blood plasma ratio at 0.5 h, 5 µM [47]: 0.752
